Legend:
human TLR7 = target: T1, human TLR7 (Homo sapiens, UniProt Q9NYK1); assay: HEK293-hTLR7 NF-kB luciferase reporter (C23) assay; details: read-out: mean fold induction of luciferase activity compared to the no drug control
T1 sequence (Q9NYK1 27-1049): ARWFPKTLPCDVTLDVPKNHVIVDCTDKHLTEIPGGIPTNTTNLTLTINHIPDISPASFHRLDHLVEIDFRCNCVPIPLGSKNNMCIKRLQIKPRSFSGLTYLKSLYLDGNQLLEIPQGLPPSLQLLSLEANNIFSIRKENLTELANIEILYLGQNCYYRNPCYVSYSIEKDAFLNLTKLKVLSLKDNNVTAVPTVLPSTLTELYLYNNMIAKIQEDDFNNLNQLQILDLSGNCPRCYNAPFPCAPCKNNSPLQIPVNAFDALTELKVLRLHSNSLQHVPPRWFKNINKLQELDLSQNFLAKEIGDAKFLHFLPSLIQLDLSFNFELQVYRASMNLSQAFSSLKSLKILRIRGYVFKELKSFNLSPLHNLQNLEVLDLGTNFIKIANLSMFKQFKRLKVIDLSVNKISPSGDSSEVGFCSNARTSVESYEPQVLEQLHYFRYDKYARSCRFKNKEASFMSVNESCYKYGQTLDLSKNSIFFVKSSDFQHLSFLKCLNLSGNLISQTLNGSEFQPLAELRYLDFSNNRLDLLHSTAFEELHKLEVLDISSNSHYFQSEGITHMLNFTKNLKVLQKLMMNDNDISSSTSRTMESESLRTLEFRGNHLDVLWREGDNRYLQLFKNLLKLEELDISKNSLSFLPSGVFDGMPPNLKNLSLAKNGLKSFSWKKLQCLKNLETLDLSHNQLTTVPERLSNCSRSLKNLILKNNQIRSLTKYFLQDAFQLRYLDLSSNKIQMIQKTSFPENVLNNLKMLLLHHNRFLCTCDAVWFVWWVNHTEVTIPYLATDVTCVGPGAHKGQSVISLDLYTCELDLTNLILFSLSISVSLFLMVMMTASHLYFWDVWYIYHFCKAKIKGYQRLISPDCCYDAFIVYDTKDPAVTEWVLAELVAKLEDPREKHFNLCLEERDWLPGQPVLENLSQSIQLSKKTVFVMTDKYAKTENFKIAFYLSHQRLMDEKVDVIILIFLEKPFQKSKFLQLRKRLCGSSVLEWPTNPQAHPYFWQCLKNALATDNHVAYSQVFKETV
Protocol: A stable HEK293-hTLR7 cell line was obtained from Invivogen (San Diego, Calif.), transfected with pNiFty2-Luc, an NF-kB inducible luciferase reporter plasmid (Invivogen) and (dual) stable transfectants selected. The resultant dual (hTLR7/pNiFty2-Luc) cell lines were functionally tested by response to loxoribine and isatoribine as measured by fold luciferase induction relative to a no drug control. […] See, e.g., Hemmi H. et al., Nat.
For a typical C23 assay, cells are seeded at 6×10^4 cells/well in 96 well plates and 4-24 hours later are treated with various concentrations of compound. After 2-48 hours exposure the cell monolayers are lyzed with passive lysis buffer (Promega) and the firefly luciferase assay carried out using the luciferase assay reagent (Promega) as specified by the manufacturer. Relative luciferase activities are expressed as folds of induction compared to the no drug control. A two-fold induction over background is considered a bona fide TLR7 agonist, dependent on this being a statistically significant increase.
In Table 1, isatoribine, was added to C23 cells for forty-eight hours, and the cells were then harvested and assayed for luciferase activity. Each time-point was assayed in triplicate.
Each time-point was assayed in triplicate.

[1] = system: human peripheral blood mononuclear cells (PBMC); assay: PBMC assay of interferon alpha release (masking); format: cell-based; details: Homo sapiens, PBMC; Table 9; 100 μM; 24 hours exposure; same blood donor; read-out: Amount of INFa relative to that induced by isatoribine at 100 μM
HCV = HCV viral load reduction in patients, intravenous isatoribine; format: in vivo, human; details: 800 mg QD×7 days IV infusion
Protocol: All doses were administered by constant rate infusion over a 60-minute period, except the 800 mg dose was administered over an 80-minute period. The flow rate for each dose was as follows: 3.33 mL/min for the 200 mg dose; 6.67 mL/min for the 400 mg dose; 8.33 mL/min for the 500 mg dose; or 10.0 mL/min for the 600 mg and 800 mg dose. Four to twelve patients were enrolled in each of the dose groups (200 mg, 400 mg, 600 mg and 800 mg per dose) and received once daily intravenous infusions for 7 days. Prior to dosing, a blood sample was drawn from each patient for assessment of the genotype of the HCV virus. […] The viral load was measured by the branched DNA method ([…]3.0 bDNA assay, Bayer Diagnostics). For plasma HCV RNA, the maximum change from the pre-treatment baseline was estimated using log-transformed values.

[2] = Toxicology studies, GI tolerance in beagle dogs; format: in vivo, beagle dog; details: dog, in vivo, iv
Excerpt: We compared in the dog the oral toxicology of 21 and 24, and the intravenous toxicology of 21. We observed that the oral toxicology of 24 was much more like intravenous 21 than it was like oral 21.

**Q.** For `Nc1nc2c(sc(=O)n2[C@@H]2O[C@H](CO)[C@@H](O)[C@H]2O)c(=O)[nH]1` [Compound 21, 7-thia-8-oxoguanosine], which fold induction at 50 µM (human TLR7) is on record?
**A.** 3.1

**Q.** What about the fold induction at 100 µM (human TLR7) of the same compound?
**A.** 3.4

**Q.** What about the fold induction at 250 µM (human TLR7) of the same compound?
**A.** 6.2

**Q.** And the fold induction at 500 µM (human TLR7)?
**A.** 10.9

**Q.** What about the Emax at 100 µM [1] of the same compound?
**A.** 100%

**Q.** And the “patients with plasma viral load decrease of more than 0.5 log 10 units” value (HCV)?
**A.** Eight of 12

**Q.** What about the “mean change in plasma viral load (HCV RNA) from baseline” value (HCV; 12 patients) of the same compound?
**A.** −0.76 log 10 units

**Q.** And the “range of change in plasma viral load (HCV RNA) from baseline” value (HCV; 12 patients)?
**A.** −2.85 to +0.21 log 10 units

**Q.** What about the “Emesis or loose stool” value ([2]; 12.5 mg/kg) of the same compound?
**A.** Neg.

**Q.** And the “GI lesions or irritation” value ([2]; 12.5 mg/kg)?
**A.** Neg.

**Q.** What about the “Emesis or loose stool” value ([2]; 25 mg/kg) of the same compound?
**A.** Neg.

**Q.** And the “GI lesions or irritation” value ([2]; 25 mg/kg)?
**A.** Neg.

**Q.** What about the “Emesis or loose stool” value ([2]; 50 mg/kg) of the same compound?
**A.** +

**Q.** And the “GI lesions or irritation” value ([2]; 50 mg/kg)?
**A.** Neg.

**Q.** What about the “Emesis or loose stool” value ([2]; 100 mg/kg) of the same compound?
**A.** ++

**Q.** What about the “GI lesions or irritation” value ([2]; 100 mg/kg) of the same compound?
**A.** Neg.
